Source: doi:10.1101/2023.03.24.534094v2 (biorxiv, 2023)
Read-outs that look alike come from different tables or passages of the source.

Assays:
Assay in all cases: biochemical
MAP2K4 = target: T1, MAP2K4 (Homo sapiens, UniProt P45985)
T1 sequence (P45985 1-399): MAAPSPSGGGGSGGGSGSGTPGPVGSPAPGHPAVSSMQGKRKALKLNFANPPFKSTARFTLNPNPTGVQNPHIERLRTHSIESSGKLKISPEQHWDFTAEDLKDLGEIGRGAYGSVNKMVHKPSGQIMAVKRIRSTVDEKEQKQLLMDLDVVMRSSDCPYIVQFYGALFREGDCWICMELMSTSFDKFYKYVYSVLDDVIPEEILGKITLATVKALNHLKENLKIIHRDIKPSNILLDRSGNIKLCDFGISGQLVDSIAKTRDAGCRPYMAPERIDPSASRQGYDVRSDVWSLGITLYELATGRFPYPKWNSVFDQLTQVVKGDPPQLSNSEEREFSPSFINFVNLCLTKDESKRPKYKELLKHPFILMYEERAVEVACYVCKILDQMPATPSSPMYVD

DAPK3 = DAPK3 (Homo sapiens, UniProt O43293)
DAPK3, sequence (O43293 whole entry): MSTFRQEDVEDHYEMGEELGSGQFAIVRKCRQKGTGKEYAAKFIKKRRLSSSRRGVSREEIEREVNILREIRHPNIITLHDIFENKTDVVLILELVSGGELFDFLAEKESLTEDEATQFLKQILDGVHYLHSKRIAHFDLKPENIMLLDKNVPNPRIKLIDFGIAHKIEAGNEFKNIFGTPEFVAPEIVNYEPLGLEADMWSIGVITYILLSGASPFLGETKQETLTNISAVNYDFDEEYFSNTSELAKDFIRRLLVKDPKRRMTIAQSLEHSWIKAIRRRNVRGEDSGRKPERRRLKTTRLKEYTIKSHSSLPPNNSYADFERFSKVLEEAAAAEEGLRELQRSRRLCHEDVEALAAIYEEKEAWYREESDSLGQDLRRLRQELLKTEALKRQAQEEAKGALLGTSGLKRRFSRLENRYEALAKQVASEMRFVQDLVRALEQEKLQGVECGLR

CaMK2d = CaMK2d (Homo sapiens, UniProt Q13557)
CaMK2d, sequence (Q13557 whole entry): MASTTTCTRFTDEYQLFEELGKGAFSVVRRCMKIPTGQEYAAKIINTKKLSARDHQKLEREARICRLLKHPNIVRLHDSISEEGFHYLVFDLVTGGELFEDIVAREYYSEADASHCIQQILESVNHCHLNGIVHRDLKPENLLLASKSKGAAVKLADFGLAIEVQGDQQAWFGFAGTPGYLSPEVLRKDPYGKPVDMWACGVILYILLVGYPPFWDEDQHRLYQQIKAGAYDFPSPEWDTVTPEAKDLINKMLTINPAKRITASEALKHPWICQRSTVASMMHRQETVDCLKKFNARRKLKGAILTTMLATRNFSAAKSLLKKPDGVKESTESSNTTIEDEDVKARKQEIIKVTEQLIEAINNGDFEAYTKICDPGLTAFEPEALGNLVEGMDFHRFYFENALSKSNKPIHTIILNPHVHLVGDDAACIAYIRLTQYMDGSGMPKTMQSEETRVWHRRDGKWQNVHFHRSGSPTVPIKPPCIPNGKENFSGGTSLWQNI

BIKE = BIKE (Homo sapiens, UniProt Q9NSY1)
BIKE, sequence (Q9NSY1 whole entry): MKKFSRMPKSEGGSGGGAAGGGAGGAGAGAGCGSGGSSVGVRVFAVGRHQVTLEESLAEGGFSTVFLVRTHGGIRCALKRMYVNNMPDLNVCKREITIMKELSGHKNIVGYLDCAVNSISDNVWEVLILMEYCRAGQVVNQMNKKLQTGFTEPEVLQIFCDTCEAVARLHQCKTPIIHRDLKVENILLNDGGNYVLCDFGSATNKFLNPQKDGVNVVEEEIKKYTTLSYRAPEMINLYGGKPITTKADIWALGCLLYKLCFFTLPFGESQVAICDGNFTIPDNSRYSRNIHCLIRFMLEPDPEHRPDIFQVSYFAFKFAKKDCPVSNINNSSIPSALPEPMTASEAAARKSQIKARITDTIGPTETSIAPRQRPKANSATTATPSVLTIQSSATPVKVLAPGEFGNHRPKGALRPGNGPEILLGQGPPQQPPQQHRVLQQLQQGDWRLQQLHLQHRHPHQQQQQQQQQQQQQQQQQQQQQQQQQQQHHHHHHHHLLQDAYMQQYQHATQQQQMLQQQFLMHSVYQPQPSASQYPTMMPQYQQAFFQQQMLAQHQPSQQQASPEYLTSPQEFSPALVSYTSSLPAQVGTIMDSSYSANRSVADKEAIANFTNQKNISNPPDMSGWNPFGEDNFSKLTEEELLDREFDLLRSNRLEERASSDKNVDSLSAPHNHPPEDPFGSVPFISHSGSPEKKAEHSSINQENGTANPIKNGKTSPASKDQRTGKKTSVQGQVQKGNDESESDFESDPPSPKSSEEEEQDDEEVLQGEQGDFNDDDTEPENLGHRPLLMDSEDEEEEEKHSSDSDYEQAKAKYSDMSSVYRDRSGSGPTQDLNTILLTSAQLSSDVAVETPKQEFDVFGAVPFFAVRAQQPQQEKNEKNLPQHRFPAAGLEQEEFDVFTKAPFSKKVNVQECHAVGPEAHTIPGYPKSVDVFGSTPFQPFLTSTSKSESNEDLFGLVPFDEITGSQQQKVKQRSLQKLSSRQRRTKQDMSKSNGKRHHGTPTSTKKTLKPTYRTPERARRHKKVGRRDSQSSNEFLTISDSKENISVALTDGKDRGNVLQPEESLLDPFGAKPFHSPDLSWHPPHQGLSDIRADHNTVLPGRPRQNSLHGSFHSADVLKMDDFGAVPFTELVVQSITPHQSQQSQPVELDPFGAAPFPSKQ

PHKG2 = target: T2, PHKG2 (Homo sapiens, UniProt P15735)
T2 sequence (P15735 1-406): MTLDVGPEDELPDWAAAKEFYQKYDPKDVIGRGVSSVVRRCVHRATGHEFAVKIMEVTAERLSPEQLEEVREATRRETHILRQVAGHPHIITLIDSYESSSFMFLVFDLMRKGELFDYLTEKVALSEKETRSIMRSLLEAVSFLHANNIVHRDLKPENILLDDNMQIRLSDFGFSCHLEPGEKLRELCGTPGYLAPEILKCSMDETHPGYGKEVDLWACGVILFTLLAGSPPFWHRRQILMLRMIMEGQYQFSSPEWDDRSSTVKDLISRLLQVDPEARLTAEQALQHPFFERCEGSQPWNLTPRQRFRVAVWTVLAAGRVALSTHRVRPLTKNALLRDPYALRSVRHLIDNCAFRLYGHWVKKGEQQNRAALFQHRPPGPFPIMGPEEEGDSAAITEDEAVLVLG

NEK2 = target: T3, NEK2 (Homo sapiens, UniProt P51955)
T3 sequence (P51955 1-445): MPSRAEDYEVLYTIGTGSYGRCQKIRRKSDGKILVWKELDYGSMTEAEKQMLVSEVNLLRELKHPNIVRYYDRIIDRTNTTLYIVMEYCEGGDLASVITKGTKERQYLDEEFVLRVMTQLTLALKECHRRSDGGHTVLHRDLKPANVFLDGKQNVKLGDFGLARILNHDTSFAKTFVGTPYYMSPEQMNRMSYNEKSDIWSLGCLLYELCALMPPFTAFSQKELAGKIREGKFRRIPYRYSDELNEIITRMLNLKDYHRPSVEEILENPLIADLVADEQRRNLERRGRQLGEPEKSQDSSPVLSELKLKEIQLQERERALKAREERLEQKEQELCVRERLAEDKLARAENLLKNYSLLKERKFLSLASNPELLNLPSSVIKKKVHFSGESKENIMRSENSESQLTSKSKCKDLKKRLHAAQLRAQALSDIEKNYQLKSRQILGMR

Erk7 = target: T4, Erk7 (Homo sapiens, UniProt Q8TD08)
T4 sequence (Q8TD08 1-544): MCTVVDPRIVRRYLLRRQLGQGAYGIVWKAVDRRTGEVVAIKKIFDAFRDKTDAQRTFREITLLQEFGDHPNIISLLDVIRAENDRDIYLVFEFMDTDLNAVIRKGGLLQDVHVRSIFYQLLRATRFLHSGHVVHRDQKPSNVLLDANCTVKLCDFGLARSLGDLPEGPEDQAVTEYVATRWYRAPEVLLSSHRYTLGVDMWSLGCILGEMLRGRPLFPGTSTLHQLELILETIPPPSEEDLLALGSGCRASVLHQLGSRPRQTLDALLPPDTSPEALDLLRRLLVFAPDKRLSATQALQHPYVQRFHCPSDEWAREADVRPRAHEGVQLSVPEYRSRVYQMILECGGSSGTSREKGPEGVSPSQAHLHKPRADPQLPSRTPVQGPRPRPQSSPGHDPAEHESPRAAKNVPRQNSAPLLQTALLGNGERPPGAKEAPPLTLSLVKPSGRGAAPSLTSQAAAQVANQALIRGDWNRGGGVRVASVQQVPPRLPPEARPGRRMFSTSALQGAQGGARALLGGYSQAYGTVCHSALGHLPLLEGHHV

PCTAIRE1 = PCTAIRE1 (Homo sapiens, UniProt Q00536)
PCTAIRE1, sequence (Q00536 whole entry): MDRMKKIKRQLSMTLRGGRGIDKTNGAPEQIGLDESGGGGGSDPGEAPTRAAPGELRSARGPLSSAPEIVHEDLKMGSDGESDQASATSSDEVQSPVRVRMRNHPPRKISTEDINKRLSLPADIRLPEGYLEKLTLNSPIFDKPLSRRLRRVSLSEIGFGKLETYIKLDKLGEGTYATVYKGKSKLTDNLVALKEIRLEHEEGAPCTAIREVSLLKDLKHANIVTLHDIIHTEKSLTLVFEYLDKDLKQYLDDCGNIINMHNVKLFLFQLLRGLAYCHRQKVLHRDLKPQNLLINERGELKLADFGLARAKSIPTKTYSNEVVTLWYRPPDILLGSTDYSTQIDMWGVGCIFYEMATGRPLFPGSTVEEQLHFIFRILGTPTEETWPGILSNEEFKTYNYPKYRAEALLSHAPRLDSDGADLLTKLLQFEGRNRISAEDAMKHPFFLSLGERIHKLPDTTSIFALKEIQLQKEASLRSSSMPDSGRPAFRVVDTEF

Structure (SMILES): CNc1ncc2cc(-c3cc(F)c(-c4cccc(C)n4)cc3F)c(=O)n(CCCCN)c2n1 [compound 12, 8-(4-Aminobutyl)-6-(2,5-difluoro-4-(6-methylpyridin-2-yl)phenyl)-2-(methylamino)pyrido[2,3-d]pyrimidin-7(8H)-one]
- ΔTm at 10 µM (MAP2K4; read-out: dTm 12): 5.4 °C
- ΔTm at 10 µM (DAPK3; read-out: dTm 12): 0.3 °C
- ΔTm at 10 µM (CaMK2d; read-out: dTm 12): -0.2 °C
- ΔTm at 10 µM (BIKE; read-out: dTm 12): 2.2 °C
- ΔTm at 10 µM (PHKG2; read-out: dTm 12): 1.5 °C
- ΔTm at 10 µM (NEK2; read-out: dTm 12): 7.2 °C
- ΔTm at 10 µM (Erk7; read-out: dTm 12): -1.3 °C
- ΔTm at 10 µM (PCTAIRE1; read-out: dTm 12): 1.3 °C

Structure (SMILES): CNc1ncc2cc(-c3cc(C(F)(F)F)ccc3Cl)c(=O)n(CCCCN)c2n1 [compound 9, 8-(4-Aminobutyl)-6-(2-chloro-5-(trifluoromethyl)phenyl)-2-(methylamino)pyrido[2,3-d]pyrimidin-7(8H)-one]
- ΔTm at 10 µM (MAP2K4; read-out: dTm 9): 2.3 °C
- ΔTm at 10 µM (DAPK3; read-out: dTm 9): -0.1 °C
- ΔTm at 10 µM (CaMK2d; read-out: dTm 9): 0.2 °C
- ΔTm at 10 µM (BIKE; read-out: dTm 9): 0.6 °C
- ΔTm at 10 µM (PHKG2; read-out: dTm 9): 0.5 °C
- ΔTm at 10 µM (NEK2; read-out: dTm 9): 1.3 °C
- ΔTm at 10 µM (Erk7; read-out: dTm 9): 0.1 °C
- ΔTm at 10 µM (PCTAIRE1; read-out: dTm 9): 0.2 °C

Structure (SMILES): CNc1ncc2cc(-c3cc(Cl)ccc3Cl)c(=O)n(CCCCN)c2n1 [compound 8, 8-(4-Aminobutyl)-6-(2,5-dichlorophenyl)-2-(methylamino)pyrido[2,3-d]pyrimidin-7(8H)-one]
- ΔTm at 10 µM (MAP2K4; read-out: dTm 8): 2.7 °C
- ΔTm at 10 µM (DAPK3; read-out: dTm 8): -0.1 °C
- ΔTm at 10 µM (CaMK2d; read-out: dTm 8): 0.4 °C
- ΔTm at 10 µM (BIKE; read-out: dTm 8): 1.1 °C
- ΔTm at 10 µM (PHKG2; read-out: dTm 8): 1.5 °C
- ΔTm at 10 µM (NEK2; read-out: dTm 8): 1.9 °C
- ΔTm at 10 µM (Erk7; read-out: dTm 8): 0.3 °C
- ΔTm at 10 µM (PCTAIRE1; read-out: dTm 8): 0.7 °C

Structure (SMILES): CNc1ncc2cc(-c3cc(Cl)ccc3Br)c(=O)n(CCCCN)c2n1 [compound 10, 8-(4-Aminobutyl)-6-(2-bromo-5-chlorophenyl)-2-(methylamino)pyrido[2,3-d]pyrimidin-7(8H)-one]
- ΔTm at 10 µM (MAP2K4; read-out: dTm 10): 3 °C
- ΔTm at 10 µM (DAPK3; read-out: dTm 10): 0.1 °C
- ΔTm at 10 µM (CaMK2d; read-out: dTm 10): 0.5 °C
- ΔTm at 10 µM (BIKE; read-out: dTm 10): 1.1 °C
- ΔTm at 10 µM (PHKG2; read-out: dTm 10): 1.3 °C
- ΔTm at 10 µM (NEK2; read-out: dTm 10): 2.1 °C
- ΔTm at 10 µM (Erk7; read-out: dTm 10): 0.3 °C
- ΔTm at 10 µM (PCTAIRE1; read-out: dTm 10): 0.6 °C

Structure (SMILES): CNc1ncc2cc(-c3cc(Br)ccc3Br)c(=O)n(CCCCN)c2n1 [compound 11, 8-(4-Aminobutyl)-6-(2,5-dibromophenyl)-2-(methylamino)pyrido[2,3-d]pyrimidin-7(8H)-one]
- ΔTm at 10 µM (MAP2K4; read-out: dTm 11): 3 °C
- ΔTm at 10 µM (DAPK3; read-out: dTm 11): -0.2 °C
- ΔTm at 10 µM (CaMK2d; read-out: dTm 11): 0.2 °C
- ΔTm at 10 µM (BIKE; read-out: dTm 11): 1 °C
- ΔTm at 10 µM (PHKG2; read-out: dTm 11): 0.6 °C
- ΔTm at 10 µM (NEK2; read-out: dTm 11): 1.7 °C
- ΔTm at 10 µM (Erk7; read-out: dTm 11): 0.3 °C
- ΔTm at 10 µM (PCTAIRE1; read-out: dTm 11): 0.9 °C
